Key:
Experiment in all cases: relative viability (nuclei count vs DMSO), 5 days (fraction); higher = more cells survive
[1] = tested on: NCI-H2023
Outline: (§1)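 Lung cancer cell lines were pin-tool dosed in 1536-well plates on the day after seeding, with either a lone drug or a fixed anchor-drug dose plus five library-drug doses (not always all listed) in √10 steps. Nuclei were counted on 4× images after 5 days. Relative viability is the ratio of treated-well to vehicle-well nuclei counts, with each value a median of duplicate plates.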

[2] = tested on: UMC-11
Outline: as §1

[3] = tested on: NCI-H1734
Outline: as §1

[4] = tested on: HCC-78
Outline: as §1

[5] = tested on: RERF-LC-KJ
Outline: as §1

[6] = tested on: NCI-H1793
Outline: as §1

[7] = tested on: NCI-H1792
Outline: as §1

[8] = tested on: NCI-H1395
Outline: as §1

[9] = tested on: NCI-H23
Outline: as §1

[10] = tested on: NCI-H1437
Outline: as §1

[11] = tested on: NCI-H1915
Outline: as §1

[12] = tested on: SK-LU-1
Outline: as §1

[13] = tested on: NCI-H2405
Outline: as §1

[14] = tested on: LCLC-103H
Outline: as §1

[15] = tested on: NCI-H661
Outline: as §1

[16] = tested on: 201T
Outline: as §1

[17] = tested on: NCI-H1651
Outline: as §1

[18] = tested on: LOU-NH91
Outline: as §1

[19] = tested on: EMC-BAC-2
Outline: as §1

[20] = tested on: NCI-H1975
Outline: as §1

[21] = tested on: EPLC-272H
Outline: as §1

[22] = tested on: ABC-1
Outline: as §1

[23] = tested on: NCI-H647
Outline: as §1

O=C(O)CCCCC(CCSCc1ccccc1)SCc1ccccc1 (stereo not drawn) [CPI-613] + C[C@]1(O)C[C@@H](c2nc(-c3ccc4ccc(-c5ccccc5)nc4c3)c3c(N)nccn32)C1 [Linsitinib] (partner 1 µM)
relative viability ([1]; first compound 5 µM): 0.614 | relative viability ([1]; first compound 15.81 µM): 0.698 | relative viability ([1]; first compound 50 µM): 0.668 | relative viability ([1]; first compound 158.11 µM): 0.243 | relative viability ([1]; first compound 500 µM): 0.0069 | relative viability ([2]; first compound 5 µM): 0.881 | relative viability ([2]; first compound 15.81 µM): 1 | relative viability ([2]; first compound 50 µM): 0.992 | relative viability ([2]; first compound 158.11 µM): 0.282 | relative viability ([2]; first compound 500 µM): 0.0946 | relative viability ([3]; first compound 5 µM): 0.93 | relative viability ([3]; first compound 15.81 µM): 0.821 | relative viability ([3]; first compound 50 µM): 0.83 | relative viability ([3]; first compound 158.11 µM): 0.69 | relative viability ([3]; first compound 500 µM): 0.117 | relative viability ([4]; first compound 5 µM): 0.48 | relative viability ([4]; first compound 15.81 µM): 0.538 | relative viability ([4]; first compound 158.11 µM): 0.573 | relative viability ([4]; first compound 500 µM): 0.487 | relative viability ([5]; first compound 5 µM): 0.878 | relative viability ([5]; first compound 15.81 µM): 0.869 | relative viability ([5]; first compound 50 µM): 0.887 | relative viability ([5]; first compound 158.11 µM): 0.87 | relative viability ([5]; first compound 500 µM): 0.885 | relative viability ([6]; first compound 5 µM): 0.822 | relative viability ([6]; first compound 50 µM): 0.823 | relative viability ([6]; first compound 158.11 µM): 0.774 | relative viability ([6]; first compound 500 µM): 0.102 | relative viability ([7]; first compound 5 µM): 0.514 | relative viability ([7]; first compound 15.81 µM): 0.49 | relative viability ([7]; first compound 50 µM): 0.56 | relative viability ([7]; first compound 158.11 µM): 0.411 | relative viability ([7]; first compound 500 µM): 0.512 | relative viability ([8]; first compound 5 µM): 1.09 | relative viability ([8]; first compound 15.81 µM): 0.961 | relative viability ([8]; first compound 50 µM): 1.08 | relative viability ([8]; first compound 158.11 µM): 1.1 | relative viability ([8]; first compound 500 µM): 1.04 | relative viability ([9]; first compound 5 µM): 0.596 | relative viability ([9]; first compound 15.81 µM): 0.567 | relative viability ([9]; first compound 50 µM): 0.395 | relative viability ([9]; first compound 158.11 µM): 0.383 | relative viability ([9]; first compound 500 µM): 0.0224 | relative viability ([10]; first compound 5 µM): 1.03 | relative viability ([10]; first compound 15.81 µM): 0.902 | relative viability ([10]; first compound 50 µM): 0.916 | relative viability ([10]; first compound 158.11 µM): 0.137 | relative viability ([10]; first compound 500 µM): 0.0235 | relative viability ([11]; first compound 5 µM): 1.11 | relative viability ([11]; first compound 15.81 µM): 1.07 | relative viability ([11]; first compound 50 µM): 1.04 | relative viability ([11]; first compound 158.11 µM): 0.964 | relative viability ([11]; first compound 500 µM): 0.626 | relative viability ([12]; first compound 5 µM): 1.04 | relative viability ([12]; first compound 15.81 µM): 0.93 | relative viability ([12]; first compound 50 µM): 0.893 | relative viability ([12]; first compound 158.11 µM): 0.177 | relative viability ([12]; first compound 500 µM): 0.122 | relative viability ([13]; first compound 5 µM): 0.979 | relative viability ([13]; first compound 15.81 µM): 0.897 | relative viability ([13]; first compound 50 µM): 0.895 | relative viability ([13]; first compound 158.11 µM): 0.818 | relative viability ([13]; first compound 500 µM): 0.773 | relative viability ([14]; first compound 5 µM): 1.11 | relative viability ([14]; first compound 15.81 µM): 1.01 | relative viability ([14]; first compound 50 µM): 1.08 | relative viability ([14]; first compound 158.11 µM): 1 | relative viability ([14]; first compound 500 µM): 0.866 | relative viability ([15]; first compound 5 µM): 0.49 | relative viability ([15]; first compound 15.81 µM): 0.458 | relative viability ([15]; first compound 50 µM): 0.668 | relative viability ([15]; first compound 158.11 µM): 0.503 | relative viability ([15]; first compound 500 µM): 0.511 | relative viability ([16]; first compound 5 µM): 0.98 | relative viability ([16]; first compound 15.81 µM): 0.969 | relative viability ([16]; first compound 50 µM): 1.01 | relative viability ([16]; first compound 158.11 µM): 0.864 | relative viability ([16]; first compound 500 µM): 0.8 | relative viability ([17]; first compound 5 µM): 0.968 | relative viability ([17]; first compound 15.81 µM): 0.92 | relative viability ([17]; first compound 50 µM): 0.836 | relative viability ([17]; first compound 158.11 µM): 0.316 | relative viability ([17]; first compound 500 µM): 0.133 | relative viability ([18]; first compound 5 µM): 0.918 | relative viability ([18]; first compound 15.81 µM): 0.907 | relative viability ([18]; first compound 50 µM): 1.06 | relative viability ([18]; first compound 158.11 µM): 0.971 | relative viability ([18]; first compound 500 µM): 0.959 | relative viability ([19]; first compound 5 µM): 0.733 | relative viability ([19]; first compound 15.81 µM): 0.823 | relative viability ([19]; first compound 50 µM): 0.825 | relative viability ([19]; first compound 158.11 µM): 0.701 | relative viability ([19]; first compound 500 µM): 0.272 | relative viability ([20]; first compound 5 µM): 0.938 | relative viability ([20]; first compound 15.81 µM): 1.03 | relative viability ([20]; first compound 50 µM): 1.13 | relative viability ([20]; first compound 158.11 µM): 0.541 | relative viability ([20]; first compound 500 µM): 0.0601 | relative viability ([21]; first compound 5 µM): 1.21 | relative viability ([21]; first compound 15.81 µM): 1.15 | relative viability ([21]; first compound 50 µM): 1.05 | relative viability ([21]; first compound 158.11 µM): 0.759 | relative viability ([21]; first compound 500 µM): 0.698 | relative viability ([22]; first compound 5 µM): 0.744 | relative viability ([22]; first compound 15.81 µM): 1.02 | relative viability ([22]; first compound 50 µM): 0.815 | relative viability ([22]; first compound 158.11 µM): 0.254 | relative viability ([22]; first compound 500 µM): 0.169 | relative viability ([23]; first compound 5 µM): 1.16 | relative viability ([23]; first compound 15.81 µM): 1.13 | relative viability ([23]; first compound 50 µM): 0.951 | relative viability ([23]; first compound 158.11 µM): 0.107 | relative viability ([23]; first compound 500 µM): 0.0169
